Read-outs that look alike come from different tables or passages of the source.
What was measured:
[1] = target: human TLR7 (Homo sapiens (Human), UniProt Q9NYK1); assay: TLR7 inhibition reporter assay (HEK-Blue SEAP); format: cell-based
[2] = target: human TLR8 (Homo sapiens (Human), UniProt Q9NR97); assay: TLR8 inhibition reporter assay (HEK-Blue SEAP);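 note: SEAP driven by IFN-β minimal promoter carrying NF-κB and AP-1 sites, compounds dosed 0.05 nM to 50 µM for 22 h, inhibition scaled between agonist-plus-DMSO and reference-inhibitor wells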
Sequence of human TLR8 (Q9NR97 27-1041): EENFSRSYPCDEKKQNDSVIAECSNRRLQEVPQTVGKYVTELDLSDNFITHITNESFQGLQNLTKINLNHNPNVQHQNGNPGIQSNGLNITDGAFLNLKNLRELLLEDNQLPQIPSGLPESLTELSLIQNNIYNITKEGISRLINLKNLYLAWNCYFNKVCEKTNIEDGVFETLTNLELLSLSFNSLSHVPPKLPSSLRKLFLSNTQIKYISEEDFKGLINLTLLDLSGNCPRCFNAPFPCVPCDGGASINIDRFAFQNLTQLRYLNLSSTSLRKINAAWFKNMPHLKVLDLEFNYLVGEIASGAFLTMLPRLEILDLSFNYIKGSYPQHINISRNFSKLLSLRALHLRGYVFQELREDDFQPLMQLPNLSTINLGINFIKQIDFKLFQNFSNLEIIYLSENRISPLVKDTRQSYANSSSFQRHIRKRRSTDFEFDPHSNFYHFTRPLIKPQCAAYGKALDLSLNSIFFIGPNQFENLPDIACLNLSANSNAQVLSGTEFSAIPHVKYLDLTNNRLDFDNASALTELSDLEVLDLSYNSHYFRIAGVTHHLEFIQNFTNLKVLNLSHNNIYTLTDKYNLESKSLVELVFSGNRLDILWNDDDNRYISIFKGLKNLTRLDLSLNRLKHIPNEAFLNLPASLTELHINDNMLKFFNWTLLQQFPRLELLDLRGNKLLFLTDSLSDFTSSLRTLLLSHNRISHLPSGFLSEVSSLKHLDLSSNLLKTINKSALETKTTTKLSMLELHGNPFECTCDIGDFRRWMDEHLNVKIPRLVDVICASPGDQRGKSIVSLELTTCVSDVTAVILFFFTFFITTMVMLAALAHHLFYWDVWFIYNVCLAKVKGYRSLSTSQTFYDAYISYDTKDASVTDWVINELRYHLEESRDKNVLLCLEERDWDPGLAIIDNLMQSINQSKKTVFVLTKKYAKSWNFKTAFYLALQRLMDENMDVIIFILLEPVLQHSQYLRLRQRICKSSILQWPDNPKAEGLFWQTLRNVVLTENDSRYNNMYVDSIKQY

[3] = target: human TLR9 (Homo sapiens (Human), UniProt Q9NR96); assay: TLR9 inhibition reporter assay (HEK-Blue SEAP);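 note: SEAP driven by an IFN-β minimal promoter with NF-κB and AP-1 sites, read after 22 h, compounds dosed 0.05 nM–50 µM, inhibition scaled between agonist plus DMSO and reference-inhibitor wells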
Sequence of human TLR9 (Q9NR96 26-1032): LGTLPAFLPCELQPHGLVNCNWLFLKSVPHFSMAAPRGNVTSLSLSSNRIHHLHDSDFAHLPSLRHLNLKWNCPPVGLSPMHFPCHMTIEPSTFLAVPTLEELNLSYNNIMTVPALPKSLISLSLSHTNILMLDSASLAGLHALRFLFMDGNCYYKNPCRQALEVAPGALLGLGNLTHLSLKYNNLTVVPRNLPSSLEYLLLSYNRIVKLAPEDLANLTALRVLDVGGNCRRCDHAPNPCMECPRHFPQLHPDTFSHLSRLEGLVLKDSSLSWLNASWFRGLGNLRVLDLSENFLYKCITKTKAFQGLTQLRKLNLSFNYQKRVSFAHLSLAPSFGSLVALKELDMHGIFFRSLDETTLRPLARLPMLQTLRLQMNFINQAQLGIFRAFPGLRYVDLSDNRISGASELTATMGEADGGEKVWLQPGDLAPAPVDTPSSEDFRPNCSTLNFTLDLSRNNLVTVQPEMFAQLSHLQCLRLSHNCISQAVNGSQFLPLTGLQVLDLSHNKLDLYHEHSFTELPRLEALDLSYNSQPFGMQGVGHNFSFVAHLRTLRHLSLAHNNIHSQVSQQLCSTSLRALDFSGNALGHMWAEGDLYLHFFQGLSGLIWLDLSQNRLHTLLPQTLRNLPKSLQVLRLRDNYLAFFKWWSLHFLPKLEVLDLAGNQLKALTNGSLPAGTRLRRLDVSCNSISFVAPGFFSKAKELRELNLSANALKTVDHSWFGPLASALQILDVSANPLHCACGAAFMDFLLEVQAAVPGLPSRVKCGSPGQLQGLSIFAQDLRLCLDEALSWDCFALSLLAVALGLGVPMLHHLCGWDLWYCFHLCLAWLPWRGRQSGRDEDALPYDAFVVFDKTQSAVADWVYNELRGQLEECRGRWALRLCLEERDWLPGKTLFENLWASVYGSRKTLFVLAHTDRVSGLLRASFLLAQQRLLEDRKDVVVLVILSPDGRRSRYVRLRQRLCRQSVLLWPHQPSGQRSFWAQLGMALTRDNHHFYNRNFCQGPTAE

[4] = HEK-Blue cells overexpressing human TLR7, gardiquimod 7.5 μM stimulation, SEAP reporter
[5] = read-out: TLR8 IC50, HEK-Blue cells overexpressing human TLR8, R848 15.9 μM stimulation, SEAP reporter
[6] = read-out: TLR9 IC50, HEK-Blue cells overexpressing human TLR9, ODN2006 5 nM stimulation, SEAP reporter

Sequence of human TLR7 (Q9NYK1 27-1049): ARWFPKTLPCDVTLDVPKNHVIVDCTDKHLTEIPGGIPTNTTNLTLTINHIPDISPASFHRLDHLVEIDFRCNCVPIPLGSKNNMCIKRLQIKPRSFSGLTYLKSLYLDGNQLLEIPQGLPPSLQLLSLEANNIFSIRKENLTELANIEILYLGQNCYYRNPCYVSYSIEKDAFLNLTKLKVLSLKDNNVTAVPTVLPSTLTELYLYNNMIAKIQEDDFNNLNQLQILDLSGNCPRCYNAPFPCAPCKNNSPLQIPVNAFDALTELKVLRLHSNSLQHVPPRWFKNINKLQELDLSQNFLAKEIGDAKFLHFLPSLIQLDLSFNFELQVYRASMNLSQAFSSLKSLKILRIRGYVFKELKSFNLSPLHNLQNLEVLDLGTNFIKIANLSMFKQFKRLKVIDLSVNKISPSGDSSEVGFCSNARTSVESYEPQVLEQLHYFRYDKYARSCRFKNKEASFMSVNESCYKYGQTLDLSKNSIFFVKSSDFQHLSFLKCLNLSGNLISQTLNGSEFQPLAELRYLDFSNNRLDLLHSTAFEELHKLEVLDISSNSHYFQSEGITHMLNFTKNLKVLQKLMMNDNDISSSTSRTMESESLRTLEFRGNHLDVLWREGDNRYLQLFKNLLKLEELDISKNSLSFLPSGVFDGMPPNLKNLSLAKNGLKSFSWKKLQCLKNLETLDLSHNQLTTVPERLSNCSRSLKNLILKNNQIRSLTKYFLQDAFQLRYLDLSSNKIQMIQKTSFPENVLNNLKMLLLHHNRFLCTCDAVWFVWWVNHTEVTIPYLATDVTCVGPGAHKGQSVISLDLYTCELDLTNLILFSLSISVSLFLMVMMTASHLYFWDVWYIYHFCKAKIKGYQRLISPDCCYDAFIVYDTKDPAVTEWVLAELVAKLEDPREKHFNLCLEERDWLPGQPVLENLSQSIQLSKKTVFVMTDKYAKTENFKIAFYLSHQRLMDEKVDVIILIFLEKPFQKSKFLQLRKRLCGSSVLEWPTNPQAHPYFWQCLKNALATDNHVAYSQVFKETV

| Compound | IC50 ([1]; HEK-Blue human TLR7 cells, gardiquimod 7.5 μM) [nM] | IC50 ([2]; TLR8 IC50, HEK-Blue human TLR8 cells, R848 15.9 μM) [nM] | IC50 ([3]; TLR9 IC50, HEK-Blue human TLR9 cells, ODN2006 5 nM) [nM] | IC50 [1, 4] [nM] | IC50 [2, 5] [nM] | IC50 [3, 6] [nM] |
| --- | --- | --- | --- | --- | --- | --- |
| [2H]C([2H])([2H])N(C([2H])([2H])[2H])C([2H])([2H])C(=O)N1C([2H])([2H])C([2H])([2H])N(c2ccc3[nH]c(-c4cn5ncnc5c(C)c4C)c(C(C)C)c3n2)C([2H])([2H])C1([2H])[2H] (single isomer, unassigned) [Example 891] | 0.64 | 0.93 | 18000 |  |  |  |
| Cc1c(-c2[nH]c3ccc(N4CC(NC5CCOCC5)C4)nc3c2C(C)C)cn2ncnc2c1C [Example 1, 1-(2-(7,8-dimethyl-[1,2,4]triazolo[1,5-a]pyridin-6-yl)-3-isopropyl-1H-pyrrolo[3,2-b]pyridin-5-yl)-N-(tetrahydro-2H-pyran-4-yl)azetidin-3-amine] |  |  |  | 20 | 3.8 | 7730 |
| Cc1c(-c2[nH]c3ccc(N4CCNCC4)nc3c2C(C)C)cn2ncnc2c1C [Example 2, 6-(3-isopropyl-5-(piperazin-1-yl)-1H-pyrrolo[3,2-b]pyridin-2-yl)-7,8-dimethyl-[1,2,4]triazolo[1,5-a]pyridine] |  |  |  | 1.7 | 0.27 | 7320 |
| COc1ccc(-c2[nH]c3ccc(C4CCN(C5CCN(CC(C)C)CC5)CC4)nc3c2C)cc1OC [Example 5, 2-(3,4-dimethoxyphenyl)-5-(1′-isobutyl-[1,4′-bipiperidin]-4-yl)-3-methyl-1H-pyrrolo[3,2-b]pyridine] |  |  |  | 471 | 4060 | 37 |
| CCN(CCN(C)C)C(=O)c1nc2c(C(C)C)c(-c3cc(OC)c4ncnn4c3)[nH]c2cc1C [Example 6, N-(2-(dimethylamino)ethyl)-N-ethyl-3-isopropyl-2-(8-methoxy-[1,2,4]triazolo[1,5-a]pyridin-6-yl)-6-methyl-1H-pyrrolo[3,2-b]pyridine-5-carboxamide] |  |  |  | 0.3 | 3.2 | 625 |
| CNC(=O)CNC1CCC(c2ccc3[nH]c(-c4cc(OC)c5ncnn5c4)c(C(C)C)c3n2)C1 (stereo not drawn) [Example 10, 2-((3-(3-isopropyl-2-(8-methoxy-[1,2,4]triazolo[1,5-a]pyridin-6-yl)-1H-pyrrolo[3,2-b]pyridin-5-yl)cyclopentyl)amino)-N-methylacetamide] |  |  |  | 0.42 | 5.3 | 1050 |
| Cc1cc(-c2[nH]c3cc(F)c(C4CCNCC4)nc3c2C(C)C)cn2ncnc12 [Example 11, 6-(6-fluoro-3-isopropyl-5-(piperidin-4-yl)-1H-pyrrolo[3,2-b]pyridin-2-yl)-8-methyl-[1,2,4]triazolo[1,5-a]pyridine] |  |  |  | 1.7 | 21 | 6790 |
| Cc1c(-c2[nH]c3ccc(N4CC(N(C)C)C4)nc3c2C(C)C)cn2ncnc2c1C [Example 12] |  |  |  | 10 | 1.6 | 10100 |
| COc1cc(-c2[nH]c3ccc(N4CC(N(C)C)C4)nc3c2C(C)C)cn2ncnc12 [Example 13] |  |  |  | 3.2 | 1.9 | 5020 |
| Cc1c(-c2[nH]c3ccc(N4CC(N)C4)nc3c2C(C)C)cn2ncnc2c1C [Example 14] |  |  |  | 11 | 4.2 | 4330 |
| Cc1c(-c2[nH]c3ccc(N4CC(NC(=O)CN(C)C)C4)nc3c2C(C)C)cn2ncnc2c1C [Example 15] |  |  |  | 7.3 | 4.3 | 1940 |
| COc1cc(-c2[nH]c3ccc(N4CC(N)C4)nc3c2C(C)C)cn2ncnc12 [Example 16] |  |  |  | 0.6 | 2.1 | 635 |
| COc1cc(-c2[nH]c3ccc(N4CC(NC(=O)CN(C)C)C4)nc3c2C(C)C)cn2ncnc12 [Example 17] |  |  |  | 3.7 | 7.7 | 1100 |
| COc1cc(-c2[nH]c3ccc(N4CC(NCC(=O)N(C)C)C4)nc3c2C(C)C)cn2ncnc12 [Example 18] |  |  |  | 14 | 14 | 1490 |
| Cc1c(-c2[nH]c3ccc(N4CC(N(C)C(=O)CN(C)C)C4)nc3c2C(C)C)cn2ncnc2c1C [Example 19] |  |  |  | 125 | 73 | 6020 |
| CNC1CN(c2ccc3[nH]c(-c4cn5ncnc5c(C)c4C)c(C(C)C)c3n2)C1 [Example 20] |  |  |  | 2.7 | 1.3 | 614 |
| Cc1c(-c2[nH]c3ccc(N4CC(N(C)CC(=O)N(C)C)C4)nc3c2C(C)C)cn2ncnc2c1C [Example 21] |  |  |  | 91 | 46 | > 50000 |
| Cc1c(-c2[nH]c3ccc(N4CC(NCC(=O)N(C)C)C4)nc3c2C(C)C)cn2ncnc2c1C [Example 22] |  |  |  | 56 | 12 | 21100 |
| CNC1CN(c2ccc3[nH]c(-c4cn5ncnc5c(C)c4C)c(C(C)C)c3n2)C1 [Example 23] |  |  |  | > 3120 | > 3120 | > 50000 |
| Cc1c(-c2[nH]c3ccc(N4CC(N(C)C5CCOCC5)C4)nc3c2C(C)C)cn2ncnc2c1C [Example 24] |  |  |  | 40 | 2.7 | 14000 |
| Cc1c(-c2[nH]c3ccc(N4CC(N(C)C(=O)CN(C)C)C4)nc3c2C(C)C)cn2ncnc2c1C [Example 25] |  |  |  | 181 | 117 | 11700 |
| Cc1c(-c2[nH]c3ccc(N4CC(NCC(=O)N(C)C)C4)nc3c2C(C)C)cn2ncnc2c1C [Example 26] |  |  |  | 1770 | 2130 | > 50000 |
| COc1cc(-c2[nH]c3ccc(N4CC(NCC(=O)N(C)C)C4)nc3c2C(C)C)cn2ncnc12 [Example 27] |  |  |  | > 3120 | > 3120 | > 50000 |

| Compound | IC50 ([1]; HEK-Blue human TLR7 cells, gardiquimod 7.5 μM) [nM] | IC50 ([2]; TLR8 IC50, HEK-Blue human TLR8 cells, R848 15.9 μM) [nM] | IC50 ([3]; TLR9 IC50, HEK-Blue human TLR9 cells, ODN2006 5 nM) [nM] | IC50 [1, 4] [nM] | IC50 [2, 5] [nM] | IC50 [3, 6] [nM] |
| --- | --- | --- | --- | --- | --- | --- |
| COc1cc(-c2[nH]c3ccc(N4CC(N(C)C(=O)CN(C)C)C4)nc3c2C(C)C)cn2ncnc12 [Example 28] |  |  |  | 263 | 1500 | > 50000 |
| COc1cc(-c2[nH]c3ccc(N4CC(NC5CCOCC5)C4)nc3c2C(C)C)cn2ncnc12 [Example 29] |  |  |  | 4.6 | 2.7 | 2830 |
| COc1cc(-c2[nH]c3ccc(N4CC(NCC5(C)COC5)C4)nc3c2C(C)C)cn2ncnc12 [Example 30] |  |  |  | 70 | 43 | 22600 |
| CNC1CN(c2ccc3[nH]c(-c4cc(OC)c5ncnn5c4)c(C(C)C)c3n2)C1 [Example 31] |  |  |  | 13 | 19 | 6060 |
| CC(C)c1c(-c2cn(C)c3ncccc23)[nH]c2ccc(N3CC(N)C3)nc12 [Example 32] |  |  |  | 7.3 | 6.9 | 1880 |
| CC(C)c1c(-c2cn(C)c3ncccc23)[nH]c2ccc(N3CC(NC4CCOCC4)C3)nc12 [Example 33] |  |  |  | 6.5 | 1.9 | 1920 |
| CC(C)c1c(-c2cn(C)c3ncccc23)[nH]c2ccc(N3CC(NCC(=O)N(C)C)C3)nc12 [Example 34] |  |  |  | 17 | 6 | 1220 |
| CC(C)c1c(-c2cn(C)c3ncccc23)[nH]c2ccc(N3CC(N)C3)nc12 [Example 35] |  |  |  | 589 | 282 | 13800 |
| CC(C)c1c(-c2cn(C)c3ncccc23)[nH]c2ccc(N3CC(NC4CCOCC4)C3)nc12 [Example 36] |  |  |  | > 3120 | > 3120 | 22100 |
| CC(C)c1c(-c2cn(C)c3ncccc23)[nH]c2ccc(N3CC(NCC(=O)N(C)C)C3)nc12 [Example 37] |  |  |  | 1270 | 465 | > 50000 |
| Cc1c(-c2[nH]c3ccc(N4CC(O)C4)nc3c2C(C)C)cn2ncnc2c1C [Example 38] |  |  |  | 21 | 5.2 | 44400 |
| Cc1c(-c2[nH]c3ccc(N4CC(N5CCC(O)CC5)C4)nc3c2C(C)C)cn2ncnc2c1C [Example 40] |  |  |  | 24 | 1.7 | 7960 |
| Cc1c(-c2[nH]c3ccc(N4CC(N5CCS(=O)(=O)CC5)C4)nc3c2C(C)C)cn2ncnc2c1C [Example 41] |  |  |  | 264 | 177 | > 50000 |
| COC(=O)N1CCN(C2CN(c3ccc4[nH]c(-c5cn6ncnc6c(C)c5C)c(C(C)C)c4n3)C2)CC1 [Example 42] |  |  |  | 178 | 57 | > 50000 |
| Cc1c(-c2[nH]c3ccc(N4CC5(CCNCC5)C4)nc3c2C(C)C)cn2ncnc2c1C [Example 43] |  |  |  | 2 | 7.8 | 560 |
| Cc1c(-c2[nH]c3ccc(N4CC5(CCN(CC(=O)N(C)C)CC5)C4)nc3c2C(C)C)cn2ncnc2c1C [Example 44] |  |  |  | 12 | 15 | 3370 |
| Cc1c(-c2[nH]c3ccc(N4CC5(CCN(CCS(C)(=O)=O)CC5)C4)nc3c2C(C)C)cn2ncnc2c1C [Example 45] |  |  |  | 22 | 20 | 7280 |
| Cc1c(-c2[nH]c3ccc(N4CC5(CCN(C(C)C)CC5)C4)nc3c2C(C)C)cn2ncnc2c1C [Example 46] |  |  |  | 4.3 | 4.9 | 1680 |
| Cc1c(-c2[nH]c3ccc(N4CCC(N(Cc5c[nH]nn5)Cc5c[nH]nn5)CC4)nc3c2C(C)C)cn2ncnc2c1C [Example 48] |  |  |  | 7.4 | 9.3 | 31300 |
| Cc1c(-c2[nH]c3ccc(N4CCC(NC5CCOCC5)CC4)nc3c2C(C)C)cn2ncnc2c1C [Example 49] |  |  |  | 1 | 0.62 | 2670 |
| Cc1c(-c2[nH]c3ccc(N4CCC(N)CC4)nc3c2C(C)C)cn2ncnc2c1C [Example 50] |  |  |  | 0.49 | 0.39 | 2840 |
| CC(C)c1c(-c2cn(C)c3ncccc23)[nH]c2ccc(N3CCC(N(CC#N)CC#N)CC3)nc12 [Example 51] |  |  |  | 5.1 | 7 | 16300 |

— patent US10544143B2, “4-azaindole compounds” (BRISTOL-MYERS SQUIBB COMPANY, priority 2017, dated 2020)
